Laboratory results reported in ChEMBL document CHEMBL2417375 (Bioorg Med Chem Lett, 2013).

Columns and labels:
[1] = molecular target: Delta-type opioid receptor (Mus musculus, UniProt P32300); experiment: Displacement of [3H]-naltrindole from mouse delta opioid receptor expressed in CHO cells after 1.5 hrs; format: cell-based
[2] = molecular target: Mu-type opioid receptor (Mus musculus) (UniProt P42866); experiment: Agonist activity at mouse mu opioid receptor expressed in CHO cells assessed as stimulation of [35S]-GTPgammaS binding after 1.5 hrs relative to DAMGO; format: functional, cell-based
Sequence of Mu-type opioid receptor (Mus musculus) (P42866 whole entry): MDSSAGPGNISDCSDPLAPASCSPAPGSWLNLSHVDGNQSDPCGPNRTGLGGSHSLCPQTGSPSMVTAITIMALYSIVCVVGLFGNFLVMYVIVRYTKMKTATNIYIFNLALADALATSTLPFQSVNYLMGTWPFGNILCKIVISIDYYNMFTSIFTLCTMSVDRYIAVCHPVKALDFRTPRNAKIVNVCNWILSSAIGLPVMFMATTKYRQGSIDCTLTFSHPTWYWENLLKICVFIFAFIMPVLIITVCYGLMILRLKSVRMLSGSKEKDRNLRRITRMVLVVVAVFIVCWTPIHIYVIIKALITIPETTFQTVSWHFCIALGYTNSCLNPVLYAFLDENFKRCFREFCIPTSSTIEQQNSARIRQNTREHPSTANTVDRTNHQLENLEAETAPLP

Mu-type opioid receptor [3] = molecular target: T1, Mu-type opioid receptor (Mus musculus, UniProt P42866); experiment: Agonist activity at mouse mu opioid receptor expressed in CHO cells assessed as stimulation of [35S]-GTPgammaS binding after 1.5 hrs; format: functional, cell-based
T1 sequence (P42866 whole entry): as above

[4] = molecular target: Kappa-type opioid receptor (Mus musculus, UniProt P33534); experiment: Displacement of [3H]-diprenorphine from mouse kappa opioid receptor expressed in CHO cells after 1.5 hrs; format: cell-based
Sequence of Kappa-type opioid receptor (P33534 whole entry): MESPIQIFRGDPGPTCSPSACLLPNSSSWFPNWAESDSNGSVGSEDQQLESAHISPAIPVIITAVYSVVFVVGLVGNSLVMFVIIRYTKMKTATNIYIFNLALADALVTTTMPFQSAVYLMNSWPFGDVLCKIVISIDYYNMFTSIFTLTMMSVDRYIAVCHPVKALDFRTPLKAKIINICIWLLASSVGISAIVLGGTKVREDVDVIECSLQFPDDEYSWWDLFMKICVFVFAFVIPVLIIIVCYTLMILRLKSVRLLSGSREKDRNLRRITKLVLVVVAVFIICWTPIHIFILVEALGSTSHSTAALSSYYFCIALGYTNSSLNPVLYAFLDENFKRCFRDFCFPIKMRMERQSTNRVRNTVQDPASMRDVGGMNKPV

Mu-type opioid receptor [5] = molecular target: T1, Mu-type opioid receptor; experiment: Displacement of [3H]-naloxone from mouse mu opioid receptor expressed in CHO cells after 1.5 hrs; format: cell-based
Mus musculus [6] = species: Mus musculus; experiment: Selectivity ratio of Ki for mouse delta opioid receptor to Ki for mouse mu opioid receptor
Mus musculus [7] = species: Mus musculus; experiment: Selectivity ratio of Ki for mouse kappa opioid receptor to Ki for mouse mu opioid receptor

Sequence of Delta-type opioid receptor (P32300 whole entry): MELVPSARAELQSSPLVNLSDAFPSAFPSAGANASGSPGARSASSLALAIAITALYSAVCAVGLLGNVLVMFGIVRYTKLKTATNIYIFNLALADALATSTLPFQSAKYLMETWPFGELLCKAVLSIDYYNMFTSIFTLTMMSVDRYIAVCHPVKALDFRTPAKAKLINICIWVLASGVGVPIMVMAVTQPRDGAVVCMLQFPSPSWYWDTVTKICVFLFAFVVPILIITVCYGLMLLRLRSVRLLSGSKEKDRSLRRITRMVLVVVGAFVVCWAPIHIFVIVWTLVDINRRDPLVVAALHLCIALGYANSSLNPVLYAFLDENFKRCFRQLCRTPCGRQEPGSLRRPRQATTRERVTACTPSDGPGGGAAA

Compound | Ki [1] [nM] | Emax [2] [%] | EC50 (Mu-type opioid receptor [3]) [nM] | Ki [4] [nM] | Ki (Mu-type opioid receptor [5]) [nM] | Ratio Ki (Mus musculus [6]) | Ratio Ki (Mus musculus [7])
O=C(N[C@H]1CC[C@@]2(O)[C@H]3Cc4ccc(O)c5c4[C@@]2(CCN3CC2CC2)[C@H]1O5)c1cc2ccccc2cn1 | 162 |  |  |  |  |  | 
Cc1nc(C(=O)N[C@H]2CC[C@@]3(O)[C@H]4Cc5ccc(O)c6c5[C@@]3(CCN4CC3CC3)[C@H]2O6)cc2ccccc12 | 117 | 22.2 | 7.2 | 29.1 | 2.1 |  | 
N#Cc1nc(C(=O)N[C@H]2CC[C@@]3(O)[C@H]4Cc5ccc(O)c6c5[C@@]3(CCN4CC3CC3)[C@H]2O6)cc2ccccc12 | 130 | 37.5 | 3.32 | 10.1 | 0.99 | 131 | 10
O=C(N[C@H]1CC[C@@]2(O)[C@H]3Cc4ccc(O)c5c4[C@@]2(CCN3CC2CC2)[C@H]1O5)c1nc(Cl)c2ccccc2c1O | 17.4 | 19.8 | 1.23 | 18.3 | 0.73 | 24 | 25
O=C(N[C@H]1CC[C@@]2(O)[C@H]3Cc4ccc(O)c5c4[C@@]2(CCN3CC2CC2)[C@H]1O5)c1cc2ccccc2c(Cl)n1 | 79.8 |  |  | 10.8 |  |  | 
O=C(CCc1cc2ccccc2cn1)N[C@H]1CC[C@@]2(O)[C@H]3Cc4ccc(O)c5c4[C@@]2(CCN3CC2CC2)[C@H]1O5 | 8.4 | 27.4 | 1.14 | 1.61 | 0.68 | 12 | 2.4
O=C(CNC(=O)c1cc2ccccc2cn1)N[C@H]1CC[C@@]2(O)[C@H]3Cc4ccc(O)c5c4[C@@]2(CCN3CC2CC2)[C@H]1O5 | 9.2 | 13.9 | 14.1 | 0.61 | 2.7 | 3.4 | 0.2
O=C(N[C@H]1CC[C@@]2(O)[C@H]3Cc4ccc(O)c5c4[C@@]2(CCN3CC2CC2)[C@H]1O5)c1ncc2ccccc2n1 | 78.8 | 21.6 | 6 | 5.1 | 1.11 | 71 | 4.6
O=C(Cc1cc2ccccc2cn1)N[C@H]1CC[C@@]2(O)[C@H]3Cc4ccc(O)c5c4[C@@]2(CCN3CC2CC2)[C@H]1O5 | 12.5 | 18.6 | 4.6 | 1.1 | 1.2 | 10 | 0.9
CN1Cc2ccccc2C[C@H]1C(=O)N[C@H]1CC[C@@]2(O)[C@H]3Cc4ccc(O)c5c4[C@@]2(CCN3CC2CC2)[C@H]1O5 | 9.3 | 24.8 | 19.4 | 6.76 | 2.9 | 3.2 | 2.3
O=C(N[C@H]1CC[C@@]2(O)[C@H]3Cc4ccc(O)c5c4[C@@]2(CCN3CC2CC2)[C@H]1O5)c1ncc2ccccc2c1O | 32.8 | 20.5 | 1.06 | 4 | 0.45 |  | 
COc1c(C(=O)N[C@H]2CC[C@@]3(O)[C@H]4Cc5ccc(O)c6c5[C@@]3(CCN4CC3CC3)[C@H]2O6)nc(Cl)c2ccccc12 | 33.9 |  | 1.74 | 22.2 |  |  | 
